Reference: ChEMBL document CHEMBL6074705, “Novel Triazines as NLRP3 Inhibitors for Treating Multiple Diseases” (ACS Med Chem Lett, 2024)

experiment: Inhibition of NLRP3 inflammasome activation in PMA-treated human THP-1 cells assessed as ASC-SPECK formation preincubated for 1 hr followed by gramicidin addition and measured after 3 hrs by immunofluorescence staining based assay; type: cell-based

EC50 | Compound
5 nM | CCN1CC[C@@]2(C)CCN(c3nnc(-c4ccc(C(F)(F)F)cc4O)c(C)n3)[C@@]2(C)C1
5 nM | Cc1cc(O)c(-c2nnc(N3CC[C@]4(C)CCN(C)C[C@]34C)nc2C)c(F)c1
5 nM | Cc1nc(N2CC[C@]3(C)CCN(C)C[C@]23C)nnc1-c1ccc(OC(F)(F)F)cc1O
5 nM | Cc1nc(N2CC[C@]3(C)CCN(C)C[C@]23C)nnc1-c1ccc(C(F)(F)F)cc1O
7 nM | Cc1nc(N2CC[C@]3(C)CCN(C)C[C@]23C)nnc1-c1ccc(C2CC2)cc1O
4 nM | Cc1nc(N2CC[C@]3(C)CCN(C)C[C@]23C)nnc1-c1ccc(Cl)cc1O
